# A melting point compilation (Tetko et al.; mined from patent text by program, amines drawn as free bases though some values may be those of a salt)
row,Structure (SMILES),melting point [°C]
1,COC(=O)c1cccc(-c2cc(CCN3CCCC3=O)c3cc(OC)ccc3c2)c1,110 to 112
2,CCCCCCCCCCOc1ccc(NC(=O)c2ccc(O)cc2)cc1OCCCCCCCCCC,137
3,CCCn1cc(C(=O)OCC)c(C(=O)OCC)c1N1C(=O)c2ccccc2C1=O,100 to 101
4,CCCOc1cccc(-c2nc(=O)c3ccccc3s2)n1,138 to 140
5,CN1CCN(c2ccccc2C=C2CCCN(c3ccc(Cl)cc3)C2=O)CC1,177 to 178
6,CNc1c(F)cc2c(=O)c(C(=O)O)cn(-c3cc(N)c(F)cc3Br)c2c1Cl,> 280
7,CCOC(=O)c1cc2c(s1)CC(C)(C)C2=O,41 to 42
8,CCCNC(=O)Nc1ccc(N)cc1C(=O)NCC1CCN(C(c2ccccc2)c2ccccc2)CC1,213 to 214
9,Cc1ccc(-c2ssc(=S)c2C)nn1,168
10,CN(C=CC(=Nc1ccccc1)Oc1ccccc1)c1ccccc1,130 to 132
11,CCCc1c(COc2ccc(C(=O)Cc3nnn[nH]3)cc2)ccc(C(C)=O)c1O,207 to 209
12,CCOC(=O)N1CC2CCN(c3c(F)cc4c(=O)c(C(=O)O)cn(C5CC5)c4c3F)C2C1 (stereo not drawn),192 to 193
13,CC(=O)CC(=O)N[C@@H](CC(=O)O)C(=O)O,127 to 130
14,CC1CN(C(=O)Nc2ccc(Cl)cc2)N=C1c1ccc(Cl)cc1 (stereo not drawn),139 to 140
15,CCOC(=O)Cc1nc(-c2ccccc2)oc1-c1ccsc1,90 to 91
16,CCOC(=O)COc1ccc(C(=O)Nc2cc(Cl)ccc2Sc2ccccc2-c2nnn[nH]2)cc1,206 to 208
17,O=C(c1cc(Cc2ccccc2)cc(Cn2ccnc2)c1)c1cc(Cl)c2cccnc2c1O,148 to 150
18,Fc1ccc(Cn2c(NC3CCN(CCc4ccccc4)C3)nc3ccccc32)cc1 (stereo not drawn),126
19,CNc1nnc(S[Si](C)(C)C)s1,80 to 82
20,COC1CSC2=C(SC1)C(OC(=O)N1CCN(C)CC1)N(c1ccc3ccc(Cl)cc3n1)C2=O (stereo not drawn),228
21,Cc1cc(CNC(=O)c2nc3n(c(=O)c2OCc2ccccc2)CCN3c2ccccc2)ccc1F,147
22,O=C1CC(CO)C(c2c(Cl)cccc2Cl)N1Cc1ccccc1 (stereo not drawn),122 to 126
23,CCCN(c1ccncc1)N1C(=O)C2(CCN(C)CC2)c2ccccc21,125 to 127
24,COc1cc(OC)nc(Oc2ccccc2C=O)n1,81
25,O=c1nc(-c2ccccc2)oc2ccccc12,104 to 105

row,Structure (SMILES),melting point [°C]
1,Cc1cc2c(Cl)ccc(-n3c(=O)cc(C(F)(F)F)n(C)c3=O)c2o1,206 to 207
2,CCCc1c(Cc2ccc(-c3ccccc3-c3nnn[nH]3)cc2)c(O)nc2ccnn12,260
3,O=[N+]([O-])c1ccc(CN2CCC(O)CC2)cc1,114 to 115
4,Cc1c(Cc2ccc(C(C)C)cc2)c2c(c(C)c1NC(=O)CC(C)(C)C)CC(C)O2 (stereo not drawn),179 to 180
5,O=C(c1ccc(Cl)cc1)c1ccc([N+](=O)[O-])cc1,97 to 98
6,O=C(Nc1cc(C(=O)NCCc2ccccc2)ccc1O)C(=O)Nc1cc(Cl)cc(Cl)c1O,265
7,N#Cc1nn(-c2c(Cl)cc(C(F)(F)F)cc2Cl)c(Br)c1S(=O)(=O)C(F)(F)F,136 to 137
8,O=C(Nc1ccc(O)cc1)c1ccc(O)cc1,180 to 185
9,COC(=O)c1ccccc1NC(=O)CN1CCN(C(=O)c2ccc(OC)c(OC)c2)CC1,168 to 169
10,Cn1nc(-c2ccc(F)cc2)c(-c2ccc(S(C)(=O)=O)cc2)cc1=O,181 to 182
11,Cc1noc(C)c1S(=O)(=O)n1c(=O)sc2ccccc21,140 to 144
12,CC(C)(C)c1cc(N=C2CCc3cc4c(nc32)C(=Nc2cc(C(C)(C)C)cc(C(C)(C)C)c2)CC4)cc(C(C)(C)C)c1,177 to 183
13,O=C(O)C1CC(=O)N(Cc2ccccc2)C1C(=O)N(Cc1ccccc1)Cc1ccccc1 (stereo not drawn),123 to 125
14,COC(=O)CC(C(=O)OC)C(=O)c1ccccc1OC (stereo not drawn),75 to 76
15,CCCCc1oc2ccccc2c1C(=O)c1ccc(OCCBr)cc1,46 to 47
16,COc1cc(C2=C(c3cn(CCCNC(=O)C(CC(C)C)NC(=O)OC(C)(C)C)c4ccccc34)C(=O)NC2=O)cc(OC)c1OC (stereo not drawn),140 to 142
17,COc1ccccc1[N+]1([O-])CC[N+]([O-])(CCN(C(=O)C2CCCCC2)c2ccccc2[N+](=O)[O-])CC1 (stereo not drawn),153 to 157
18,CCS(=O)(=O)CCc1ccc(C(=O)c2ccc(Cl)cc2)cc1,117 to 118
19,COc1ccc(-c2c(C(=O)O)c3ccccc3n2C)cc1,229 to 230
20,COc1ccc(-c2cc(C(C)(O)C(F)(F)F)[nH]c2-c2ccc(OC)cc2)cc1 (stereo not drawn),111 to 112
21,Cc1cc(Br)cc(-c2ccc3c(c2)C(C)(C)OC(=S)N3)c1,183 to 184
22,CCOC(=O)c1c(-c2cccc(Cl)c2)c2cc(C(c3nc(-c4ccccc4)cs3)n3ccnc3-c3ccccc3)ccc2[nH]c1=O (stereo not drawn),149
23,COC1=CC(=O)C2CC=CCC2C1=O (stereo not drawn),120 to 122
24,CN1CC(=O)C(C)(C)CC1=O,52 to 54
25,O=C1NC(=O)C2(N1)C1CC3CC(C1)CC2C3 (stereo not drawn),290 to 293

row,Structure (SMILES),melting point [°C]
1,N#Cc1cc(N)ccc1N1CCOCC1,147 to 148
2,Clc1ccc(C(Br)Br)c(C(Br)Br)c1,108 to 111
3,COc1ccc(CNC(=O)c2ccc3c(c2)c(=O)n(Cc2ccccc2)c(=O)n3C)cc1,191
4,COC(=O)c1cc(C)c(C(OC(=O)C(C)NS(=O)(=O)c2ccc(C)cc2)c2cc(-n3ccnc3)ccc2C)c(C)c1 (stereo not drawn),103 to 105
5,CCC=C(Cc1ccc(Cl)cc1Cl)n1cncn1,127
6,CCCCCCCCCCCCOc1ccc(C(=O)O)c(O)c1,98 to 100
7,CN1C(=O)[C@H](NC(=O)Nc2ccc3c(c2)CCC3)N=C(c2ccccc2)c2ccccc21,156 to 158
8,CCOC(=O)Cc1cccc(-c2nc(COc3ccc(COc4nn(-c5ccccc5)cc4C=O)cc3OC)c(C)o2)c1,145 to 146
9,CCn1cc(C(=O)Nc2cc(Oc3ccc4nc(NC(=O)C5CC5)cn4n3)ccc2F)c(C)n1,199
10,CCCCCCCCCCCCCCCCCC(=O)OC1CC(C)(C)N(OC(=O)CCCCCCCCCCCCCCCCC)C(C)(C)C1,62 to 65
11,Cc1c(O)ccc(NC2=CC(=O)C(N)=CC2=O)c1C,320
12,Cc1ccc(-n2nc3c4cc(CCc5ccccc5)ccc4[nH]c(=O)n3c2=O)cc1,303
13,NC(=O)CC12CCCCC1CCc1ccccc12 (stereo not drawn),177
14,O=C(Nc1ccc(Cl)cn1)c1cc(Cl)ccc1NCC1CCN(C2CCSCC2)CC1,200 to 203
15,COc1cc2c(cc1Nc1ncc(Cl)c(Nc3ccccc3S(=O)(=O)N(C)C)n1)CCN(CCO)CC2,150 to 152
16,CSC1(Cl)C(=O)Nc2ccc(C(F)(F)F)cc21 (stereo not drawn),191 to 193
17,CC(C)C[C@H](NC1CCOCC1)C(=O)O,> 300
18,CS(=O)(=O)c1ccc(-c2nc(C(F)(F)F)nc(NN)c2-c2ccc(Cl)cc2)cc1,266 to 269
19,O=C(O)CN1C(=O)C(=Cc2ccccc2Cl)SC1=S,238 to 242
20,Fc1cccc(F)c1Cn1c(-c2c(F)cccc2F)nc2ccccc21,145
21,Cc1ccc(N2C(=O)C(O)=C(C(=O)c3ccc(C(C)C)cc3)C2c2ccc(Oc3ccccn3)cc2)nn1 (stereo not drawn),280
22,CCCCCc1ccc(OCC23CCC(CCC)(CC2)CC3)c(C#N)c1C#N,133
23,Nc1c(Cl)cc(C(O)CNCCCCCCOCCCc2ccc(Br)cn2)cc1Cl (stereo not drawn),52 to 55
24,Cc1cc(O)ccc1N=Cc1ccccc1O,95 to 97
25,CC(C)CCOC(=O)C(C)Oc1cc(-c2nn(C)c(C(F)(F)F)c2Cl)c(F)cc1Cl (stereo not drawn),128

row,Structure (SMILES),melting point [°C]
1,CC(=O)Nc1ccc(C(=O)O)cc1OCCO,208
2,O=C(Nc1cccc(Oc2ccc(Cl)cc2)c1)c1ccn2c1CSC2c1cccnc1 (stereo not drawn),140
3,CCOC(=O)/C=C1/CO[C@](C)([C@H]2CC[C@H]3[C@@H](O[Si](C)(C)C(C)(C)C)CCC[C@@]32C)C1,101
4,COc1ccc(-c2cc(C(=O)O)c(=O)n(CC3CCCC3)n2)cc1F,159 to 161
5,Cc1oc(-c2ccccc2)nc1COc1ccc(CCC2SC(=O)NC2=O)cc1 (stereo not drawn),146 to 147
6,COc1cccc(/C=C/C(=O)N2CC(CCl)c3c2cc(N)c2ccccc32)c1 (stereo not drawn),> 200
7,Clc1ccc(C2Cc3cnc(Nc4ccc(CCN5CCOCC5)cc4)nc3-c3ccccc32)cc1Cl (stereo not drawn),166 to 167
8,CCN(CC)C1CCN(c2ccc(C(C)=O)cc2)CC1,125 to 127
9,CNC(=O)ON(C(=O)NC)C(=O)C(C)(C)C,117 to 119
10,CCOC(=O)c1cc(C#N)c(C)nc1NC,103 to 105
11,CCCCOc1c(CO)n(CC2CC2)c(=O)c2ccc(OCc3ccccc3)cc12,96 to 97
12,Cc1nc(-c2ccc(N3CCN(C)CC3)c([N+](=O)[O-])c2)sc1C(=O)O,218 to 220
13,CCN(CC)C(=O)Oc1cc(-c2ccccn2)nc2ccccc12,100
14,COc1ccc2c(c1)CCC(C(=O)Cc1ccccc1)C2C#N (stereo not drawn),139 to 142
15,COC(=O)c1cc(Cl)cc2c1OC(C)C(=O)N2 (stereo not drawn),186 to 189
16,COc1c(CO)n(C)c(=O)c2ccc(Cl)cc12,195 to 196
17,NCC(=O)NCc1cccnc1,87 to 88
18,CC(C)C(=O)N(Cc1ccccc1)c1nnn(C)n1,65
19,CCC(CC)(CC)C(=O)NC(C)(C)CO,57 to 58
20,N#CCc1cccc2c(C3CCCC3)nccc12,99.4 to 100
21,Cc1c[nH]c(=O)n(CCCCl)c1=O,117 to 121
22,COc1cc(C)nc(NC(=O)NS(=O)(=O)c2cccc(NC(=O)NC(C)(C)C)c2)n1,137 to 145
23,C[Si](C)(C)O[C@@H]1C(=O)N[C@@H]1c1ccccc1 (relative stereo),118 to 120
